Patent US12378211B2, “Carbonic anhydrase inhibitors and antibiotics against multidrug resistant bacteria” (Purdue Research Foundation, priority 2018, dated 2025)
In brackets after ≈: the same amount, converted by molar mass. Like-named read-outs stand apart in the source and are kept apart here.

Tests used:
[1] = tested on: Enterococcus faecalis—S613 HM-334; test: MIC, broth microdilution in TSB; format: cell-based; settings: Enterococcus
Protocol: (§1) The minimum inhibitory concentrations (MICs) of the compounds and control drugs were determined using the broth microdilution method, according to guidelines outlined by the Clinical and Laboratory Standards Institute (CLSI). Enterococci strains were grown aerobically overnight on tryptone soya agar plates at 37° C., afterwards a bacterial solution equivalent to 0.5 McFarland standard was prepared and diluted in tryptone soy broth (TSB) to achieve a bacterial concentration of about 5×10^5 CFU/mL and seeded in 96-well well plates. Compounds and control drugs were added in the first row of the 96-well plates and serially diluted along the plates. Plates were then incubated aerobically at 37° C. for 18-20 hours. MICs reported in Table 1 are the minimum concentration of the compounds/control drugs that could inhibit completely the visual growth of the bacteria.

[2] = tested on: Enterococcus faecium E417-HM-965; test: MIC, broth microdilution in TSB; format: cell-based; settings: Enterococcus faecium
Protocol: as §1

[3] = tested on: Enterococcus faecium Patient #2-1-NR-31909; test: MIC, broth microdilution in TSB; format: cell-based; settings: Enterococcus faecium
Protocol: as §1

[4] = tested on: Enterococcus faecium Patient #3-1 NR-31912; test: MIC, broth microdilution in TSB; format: cell-based; settings: Enterococcus faecium
Protocol: as §1

[5] = tested on: Enterococcus fecalis Strain MMH594-NR31975; test: MIC, broth microdilution in TSB; format: cell-based; settings: Enterococcus
Protocol: as §1

[6] = tested on: Enterococcus fecalis Strain SF 24397 NR31970; test: MIC, broth microdilution in TSB; format: cell-based; settings: Enterococcus
Protocol: as §1

[7] = tested on: Enterococcus fecalis Strain SF 28073-NR31972; test: MIC, broth microdilution in TSB; format: cell-based; settings: Enterococcus
Protocol: as §1

[8] = tested on: Enterococcus fecalis Strain SF24413 NR31971; test: MIC, broth microdilution in TSB; format: cell-based; settings: Enterococcus
Protocol: as §1

[9] = tested on: MRSA NRS 384 (MRSA USA300); test: MIC against Staphylococci, broth microdilution; format: cell-based, Staphylococcus aureus; settings: Staphylococcus aureus
Protocol: as §1, with “Institute (CLSI) 1. Staphylococci” for “Institute (CLSI). Enterococci”, “Table 2” for “Table 1”

[10] = tested on: Staphylococcus epidermidis NRS 101; test: MIC against Staphylococci, broth microdilution; format: cell-based; settings: Staphylococcus epidermidis, NRS101
Protocol: as §1, with “Institute (CLSI) 1. Staphylococci” for “Institute (CLSI). Enterococci”, “Table 2” for “Table 1”

[11] = tested on: Bacteroides dorei—CL02T12C06 HM-719; test: MIC against human normal gut microbiota; format: cell-based; settings: Bacteroides
Protocol: (§2) Three different bacterial strains were used in this experiment; Bifidobacterium (anaerobic Gram positive bacteria), Bacteroides (anaerobic Gram negative bacteria) and Lactobacillus (microaerophilic Gram positive bacteria). Bifidobacterium and Bacteroides were first grown for 48 hours at 37° C., anaerobically using brain heart infusion supplemented (BHIS) agar (Brain heart infusion agar supplemented with hemin, vitamin K and L-cysteine). Lactobacillus was cultivated on MRS agar and incubated in presence of 5% CO2 for 48 hours at 37° C. Each bacterium was suspended in phosphate buffered saline (PBS) to produce a suspension with optical density that matches 0.5 McFarland standard and diluted in brain heart infusion supplemented broth (for Bifidobacterium and Bacteroides) or in MRS broth (for Lactobacillus) to achieve bacterial concentration of approximately 5×10^5 CFU/ml. Bacteria were then seeded in 96-well plates containing serial dilutions of the compounds and incubated as mentioned previously for 48 hours.

[12] = tested on: Bacteroides fragilis—CL07T00C01 HIM-709; test: MIC against human normal gut microbiota; format: cell-based; settings: Bacteroides
Protocol: as §2

[13] = tested on: Bifidobacterium breve—JCP7499 HIM 1120; test: MIC against human normal gut microbiota; format: cell-based; settings: Bifidobacterium
Protocol: as §2

[14] = tested on: Bifidobacterium longum subsp. Longum—44B HM 845; test: MIC against human normal gut microbiota; format: cell-based; settings: Bifidobacterium longum
Protocol: as §2

[15] = tested on: Lactobacillus casei ATCC 334; test: MIC against human normal gut microbiota; format: cell-based; settings: Lacticaseibacillus casei
Protocol: as §2

[16] = tested on: Lactobacillus gasseri EX336960VC03 HIM-400; test: MIC against human normal gut microbiota; format: cell-based; settings: Lactobacillus gasseri
Protocol: as §2

[17] = tested on: Enterococcus faecium E417-HM-965; test: MIC of CAIs in BHIB and TSB; format: cell-based
Protocol: (§3) The minimum inhibitory concentrations (MICs) of CAIs were tested against clinical isolates of vancomycin sensitive and vancomycin resistant Enterococci strains as per the guidelines provided by the Clinical and Laboratory Standards Institute (CLSI). The selected strains of Enterococci were streaked on Tryptic Soy Agar (TSA) plates and let grow for 24 hours at 37° C. Afterwards, a bacterial solution equivalent to 0.5 McFarland standard was prepared and diluted in tryptone soy broth (TSB) or brain heart infusion broth (BHIB) to achieve a bacterial concentration of about 5×10^5 CFU/mL and seeded in 96-well well plates. Compounds and control drugs were added in the first row of the 96-well plates and serially diluted along the plates. Plates were then incubated aerobically at 37° C. for 18-20 hours. MICs reported in Table 5 are the minimum concentration of the compounds/control drugs that could inhibit completely the visual growth of the bacteria.

[18] = tested on: Enterococcus faecium Patient #2-1-NR-31909; test: MIC of CAIs in BHIB and TSB; format: cell-based
Protocol: as §3

[19] = tested on: Enterococcus fecalis Strain SF 24397 NR31970; test: MIC of CAIs in BHIB and TSB; format: cell-based
Protocol: as §3

[20] = tested on: Enterococcus faecalis—S613 HM-334; test: MIC of CAIs in BHIB and TSB; format: cell-based
Protocol: as §3, with “bacteria. The MIC values of CAIs against the tested VRE strains were higher in BHIB than in TSB. This may be due to binding of these drugs to proteins. […] They inhibited the VRE strains at MIC values ranging from 1 to 4 μg/mL.” for “bacteria.”

[21] = TSB, Table 7, read-out: MIC in TSB
[22] = E417HM965, TSB, Table 1, read-out: MIC
[23] = E417HM965, TSB, Table 7, read-out: MIC in TSB
[24] = BHIS broth, anaerobic, 48 hours, read-out: MIC
[25] = ATCC334, MRS broth, 5% CO2, 48 hours, read-out: MIC
[26] = MRS broth, 5% CO2, 48 hours, read-out: MIC

`NS(=O)(=O)c1nnc(NC(=O)c2ccccc2)s1` [CAI0012, N-(5-Sulfamoyl-1,3,4-thiadiazol-2-yl)benzamide] was tested, and the MIC ([1]; TSB, Table 1, read-out: MIC) was 4 µg/mL (≈ 14.1 µM), the MIC [1, 21] was 4 µg/mL (≈ 14.1 µM) and the MIC [2, 22] was 2 µg/mL (≈ 7.03 µM). It also gave an MIC [2, 23] of 2 µg/mL (≈ 7.03 µM), an MIC ([3]; TSB, Table 1, read-out: MIC) of 1 µg/mL (≈ 3.52 µM) and an MIC [3, 21] of 1 µg/mL (≈ 3.52 µM). It also gave an MIC ([4]; TSB, Table 1, read-out: MIC) of 1 µg/mL (≈ 3.52 µM), an MIC [4, 21] of 1 µg/mL (≈ 3.52 µM) and an MIC ([5]; TSB, Table 1, read-out: MIC) of 4 µg/mL (≈ 14.1 µM). The MIC [5, 21] was 4 µg/mL (≈ 14.1 µM), the MIC ([6]; TSB, Table 1, read-out: MIC) was 4 µg/mL (≈ 14.1 µM) and the MIC [6, 21] was 4 µg/mL (≈ 14.1 µM). The MIC ([7]; TSB, Table 1, read-out: MIC) was 8 µg/mL (≈ 28.1 µM), the MIC [7, 21] was 8 µg/mL (≈ 28.1 µM) and the MIC ([8]; TSB, Table 1, read-out: MIC) was 4 µg/mL (≈ 14.1 µM). For the same compound, the MIC [8, 21] was 4 µg/mL (≈ 14.1 µM), the MIC ([9]; TSB, read-out: MIC) was over 64 µg/mL and the MIC ([10]; TSB, read-out: MIC) was over 64 µg/mL. It also gave an MIC [11, 24] of over 64 µg/mL, an MIC [12, 24] of over 64 µg/mL and an MIC [13, 24] of over 64 µg/mL. For the same compound, the MIC [14, 24] was over 64 µg/mL, the MIC [15, 25] was over 64 µg/mL and the MIC [16, 26] was over 64 µg/mL.
`CN[C@H](CC(C)C)C(=O)N[C@H]1C(=O)N[C@@H](CC(N)=O)C(=O)N[C@H]2C(=O)N[C@H]3C(=O)N[C@H](C(=O)N[C@H](C(=O)O)c4cc(O)cc(O)c4-c4cc3ccc4O)[C@H](O)c3ccc(c(Cl)c3)Oc3cc2cc(c3O[C@@H]2O[C@H](CO)[C@@H](O)[C@H](O)[C@H]2O[C@H]2C[C@](C)(N)[C@H](O)[C@H](C)O2)Oc2ccc(cc2Cl)[C@H]1O` [Vancomycin, reference compound] gave an MIC [1] of over 64 µg/mL, an MIC ([1]; read-out: MIC in TSB) of over 64 µg/mL and an MIC ([2]; E417HM965) of over 64 µg/mL. The MIC ([2]; E417HM965, read-out: MIC in TSB) was over 64 µg/mL, the MIC [3] was over 64 µg/mL and the MIC ([3]; read-out: MIC in TSB) was over 64 µg/mL. It also gave an MIC [4] of over 64 µg/mL, an MIC ([4]; read-out: MIC in TSB) of over 64 µg/mL and an MIC [5] of 2 µg/mL (≈ 1.38 µM). It also gave an MIC ([5]; read-out: MIC in TSB) of 2 µg/mL (≈ 1.38 µM), an MIC [6] of 2 µg/mL (≈ 1.38 µM) and an MIC ([6]; read-out: MIC in TSB) of 2 µg/mL (≈ 1.38 µM). It also gave an MIC [7] of over 64 µg/mL, an MIC ([7]; read-out: MIC in TSB) of over 64 µg/mL and an MIC [8] of 32 µg/mL (≈ 22.1 µM). For the same compound, the MIC ([8]; read-out: MIC in TSB) was 32 µg/mL (≈ 22.1 µM), the MIC [9] was 1 µg/mL (≈ 0.69 µM) and the MIC [10] was 4 µg/mL (≈ 2.76 µM). It also gave an MIC ([11]; 48 h) of 64 µg/mL (≈ 44.2 µM), an MIC ([12]; 48 h) of 64 µg/mL (≈ 44.2 µM) and an MIC ([13]; 48 h) of 8 µg/mL (≈ 5.52 µM). The MIC ([14]; 48 h) was 8 µg/mL (≈ 5.52 µM), the MIC ([15]; ATCC334, 48 h) was over 64 µg/mL and the MIC ([16]; 48 h) was over 64 µg/mL. For the same compound, the MIC ([17]; Enterococcus faecium, E417HM965) was over 128 µg/mL, the MIC ([17]; TSB, Table 5) was over 128 µg/mL and the MIC ([18]; Enterococcus faecium) was over 128 µg/mL. The MIC ([18]; TSB, Table 5) was over 128 µg/mL, the MIC ([19]; Enterococcus) was 2 µg/mL and the MIC ([19]; TSB, Table 5) was 2 µg/mL. The MIC ([20]; Enterococcus) was over 128 µg/mL and the MIC ([20]; TSB, Table 5) was over 128 µg/mL.
With `CCC(=O)Nc1nnc(S(N)(=O)=O)s1` [CAI0009, N-(5-Sulfamoyl-1,3,4-thiadiazol-2-yl) propionamide] the MIC ([1]; TSB, Table 1, read-out: MIC) was 2 µg/mL (≈ 8.46 µM), the MIC [1, 21] was 2 µg/mL (≈ 8.46 µM) and the MIC [2, 22] was 1 µg/mL (≈ 4.23 µM). The MIC [2, 23] was 1 µg/mL (≈ 4.23 µM), the MIC ([3]; TSB, Table 1, read-out: MIC) was 1 µg/mL (≈ 4.23 µM) and the MIC [3, 21] was 1 µg/mL (≈ 4.23 µM). For the same compound, the MIC ([4]; TSB, Table 1, read-out: MIC) was 1 µg/mL (≈ 4.23 µM), the MIC [4, 21] was 1 µg/mL (≈ 4.23 µM) and the MIC ([5]; TSB, Table 1, read-out: MIC) was 2 µg/mL (≈ 8.46 µM). The MIC [5, 21] was 2 µg/mL (≈ 8.46 µM), the MIC ([6]; TSB, Table 1, read-out: MIC) was 4 µg/mL (≈ 16.9 µM) and the MIC [6, 21] was 4 µg/mL (≈ 16.9 µM). The MIC ([7]; TSB, Table 1, read-out: MIC) was 4 µg/mL (≈ 16.9 µM), the MIC [7, 21] was 4 µg/mL (≈ 16.9 µM) and the MIC ([8]; TSB, Table 1, read-out: MIC) was 4 µg/mL (≈ 16.9 µM). For the same compound, the MIC [8, 21] was 4 µg/mL (≈ 16.9 µM), the MIC ([9]; TSB, read-out: MIC) was over 64 µg/mL and the MIC ([10]; TSB, read-out: MIC) was over 64 µg/mL. The MIC [11, 24] was over 64 µg/mL, the MIC [12, 24] was over 64 µg/mL and the MIC [13, 24] was over 64 µg/mL. It also gave an MIC [14, 24] of over 64 µg/mL, an MIC [15, 25] of over 64 µg/mL and an MIC [16, 26] of over 64 µg/mL.
